Earlier results as cited in patent publication US20260199417A1, “OPHTHALMIC FORMULATION FOR TOPICAL USE CONTAINING HELENALIN, 11A,13-DIHYDRO HELENALIN AND FLAVONOIDS FROM ARNICA MONTANA EXTRACT AND SODIUM HYALURONATE, AND USE THEREOF BY HUMANS TO TREAT DRY EYE SYNDROME” (CENTRO DE RETINA MÉDICA Y QUIRÚRGICA, S.C., priority 2022, published 2026).

Tested on: NF kappa-B
Details: T cells, B cells, and epithelial cells

Compound | Activation of NF kappa-B
C=C1C(=O)O[C@@H]2C[C@@H](C)[C@@H]3C=CC(=O)[C@@]3(C)[C@@H](O)[C@H]12 [helenalin] | inhibited
C[C@@H]1C[C@H]2OC(=O)[C@@H](C)[C@H]2[C@H](O)[C@]2(C)C(=O)C=C[C@@H]12 [11-α, 13-dihydrohelenalin] | inhibited
